According to patent US7445931B2, “Compositions and methods for enrichment of neural stem cells using ceramide analogs” (Bresagen, Inc., priority 2002, dated 2008):

Columns and labels:
[1] = tested on: differentiating ES-J1 cells; experiment: Apoptosis (TUNEL staining, cell death) in differentiating mouse ES cells incubated with ceramide analogs; type: cell-based; conditions: for number of TUNEL stained cells: 15 hours with 75 μM S16 or S18, or 35 μM C2-ceramide
Procedure: In vitro neural differentiation of mouse ES cells (ES-J1, ES-D3) followed a serum deprivation protocol as described previously (Hancock, et al., 2000 Biochem. Biophys. Res. Commun., 271: 418-421). The differentiation stages are outlined in FIG. 2. Briefly, ES cells were grown on gamma-irradiated feeder fibroblasts for four days in Knockout DMEM/15% Knockout serum replacement, supplemented with ESGRO (LIF; Chemicon; Cat No. ESG1106) at a concentration of 10^3 units/ml medium. ES cells were then grown for another four days on gelatin-coated bacterial culture dishes without a fibroblast feeder layer, and were then grown for three days in Knockout DMEM/15% heat-inactivated ES qualified Fetal Bovine Serum, supplemented with 10^3 units LIF per ml of medium. Upon trypsinization, ES cells were transferred to bacterial culture dishes without gelatin, and embryoid body (EB) formation was induced for four days in Knockout DMEM/10% heat-inactivated ES qualified FBS without LIF (EB4 stage). On the fifth day, floating and loosely attached EBs were rinsed off and transferred to tissue culture dishes. The EBs were allowed to attach to the tissue culture dish surface by incubation for another 24 hours in Knockout DMEM with 10% heat-inactivated ES qualified fetal bovine serum. Neural differentiation due to serum deprivation was induced by cultivation of the EBs for three days in DME/12 (50/50), supplemented with 1×N2 (Invitrogen/Life Technologies; Cat No. 17502, dilution of 1:100) but without serum (EB8 stage). Serum-deprived EBs were then trypsinized, plated on poly-L-ornithine/laminin-coated tissue culture dishes and grown for four days in DMEM/F12 (50/50), supplemented with N2 and 10 ng/ml FGF-2, but without serum. This incubation period is referred to as neuroprogenitor (NP) stage due to commitment of neuroepithelial precursor cells to neuroprogenitor cells, and/or due to the selective expansion of neural progenitor cells in the FGF-2 containing serum-free medium. These cells have committed during the EB stages and were expanded during the NP stage. NPs grown for 48 hours upon replating of trypsinized EBs were referred to as the NP2 stage. On the fifth day of NP formation, the medium was changed to Neurobasal (Invitrogen/Life Technologies; Cat No. 21103-049), with 5% heat-inactivated FBS, and the cells were incubated for another seven days. During this time, NPs fully differentiate to glial cells and neurons. Cells cultured for 24 hours or 96 hours upon changing the medium were referred to as the D1 or D4 stage, respectively.
ES cells were cultured and differentiated to the EB4, EB8, NP2, or D4 stage following the protocol as described above. The ceramide analog S18 was dissolved in ethanol at a concentration of 100 mM and then added to the cells at a final concentration of 75 μM in medium. The cells at the EB8 stage were incubated for 48 hours in the presence of the ceramide analog and were then transplanted into mouse brains.
Differentiating ES cells were grown on cover slips and fixed with 4% paraformaldehyde in phosphate-buffered saline (PBS). Fixed cells were permeabilized with 0.5% Triton X-100 in PBS for 5 minutes at room temperature and unspecific binding sites were saturated by incubation with 3% ovalbumin in PBS for 1 hour at 37° C. The cover slips were then incubated with 5 μg/ml primary antibody (anti-ceramide clone 15B4 mouse IgM, Alexis; anti-PAR-4 rabbit IgG, Santa Cruz; anti-PCNA rabbit IgG, Santa Cruz; anti-nestin clone 401 rat IgG, BD Pharmingen) in 0.1% ovalbumin/PBS, followed by incubation with the appropriate fluorescence-labeled secondary antibody (5 μg/ml Alexa 546 conjugated anti-mouse IgG, Molecular Probes; Alexa 488 conjugated anti-rabbit IgG, Molecular Probes, Cy3 conjugated anti-mouse IgM, Jackson) for 2 hours at 37° C. The nuclei were stained by treatment with 2 μg/ml Hoechst 33258 in PBS for 30 minutes at room temperature. […]

sfEBMs in suspension = experiment: S18 treatment of sfEBMs in suspension, histology and immunocytochemistry; type: cell-based, human
Procedure: To perform immunostaining on fixed cells or cytospins, the samples were washed in block buffer (3% goat serum, 1% polyvinyl Pyrolidone, 0.3% Triton X-100 in wash buffer) for 30 minutes, and then incubated with the appropriate dilution of the primary antibody, or combination of antibodies for 4-6 hours at room temperature. The primary antibodies were anti-Map2, a mouse monoclonal antibody recognizing the Map-2 a, b and c isoforms (Sigma, Catalog # M4403) at a 1/500 dilution; anti-Nestin, a rabbit polyclonal antibody (Chemicon, Catalog # AB5922) at a 1/200 dilution; anti-Oct-4, a rabbit polyclonal antibody (Santa Cruz, Catalog # sc-9081) at a 1/200 dilution; sheep anti-Tyrosine Hydroxlyase (TH) antibody (Pel-Freez, Catalog # P60101-0) at a 1/500 dilution; anti-phosphoHistoneH3, a rabbit polyclonal antibody (Upstate, Catalog, # 06-570) at a 1/400 dilution; anti-SSEA4, a mouse monoclonal antibody (Developmental Studies Hybridoma Bank, Catalog # MC-813-70) at a ⅕ dilution. The cells were then washed in wash buffer (50 mM Tris-HCL pH 7.5, and 2.5 mM NaCl) 3 times for 5 minutes each wash. The cells were then incubated for a minimum of 2 hours in secondary antibodies diluted 1:1000, followed by washing in wash buffer. The secondary antibodies were appropriate combinations of Alexa-350 (blue), -488 (green) or -568 (red) conjugated goat anti-chicken, anti-rabbit, anti-sheep or anti-mouse antibodies, all available from Molecular Probes. Some samples were stained with 5 ng/ml DAPI to detect cell nuclei, and were then washed from overnight to 2 days in a large volume of wash buffer. The slides were mounted with mounting medium and a cover slip. Slides were visualized using either a NIKON TS100 inverted microscope or a NIKON TE 2000-S inverted microscope with a Q Imaging digital camera
Essentially serum free embryoid bodies (sfEBMs) were generated as described in Example 6, and were exposed to S18 at different stages of their development in order to assess the timing of depletion of high Oct-4 expressing cells, and in order to determine when neural rosettes could be selected. The sfEBMs in suspension were treated with 10 μM S18 in 50% DMEM/F12, 50% MEDII, supplemented with 1×N2, Glutamine (20 mM), penicillin (0.5 U/ml), and streptomycin (0.5 U/ml) for varying amounts of time, and the sfEBMs were then evaluated histologically and by immunocytochemistry.
Essentially serum free embryoid bodies were derived from protease passaged cells and grown in the presence of 50% MEDII conditioned medium. The embryoid bodies were exposed to 10 μM S18 in the same medium from day 6 to 9 after derivation. At day 9 the S18 treated sfFBMs and matched control sfEBMs not exposed to S18 were fixed, embedded in plastic, cut to 3 micron sections and stained with DAPI to enable the precise determination of the proportion of the total healthy nuclei of an sfEBM that were rosette cell nuclei.

[2] = sfEBMs at day 14, 48 hours exposure to 10 μM S18

Compound: CCCCCCCC/C=C\CCCCCCCC(=O)NC(CO)CO [S18, N-(2-hydroxy-1-(hydroxymethyl)ethyl)-oleoylamide]
- cell death ([1]; EB8 and NP2 stages, 20 hours with 75 μM S18): high degree of cell death
- number of TUNEL stained cells ([1]; EB8 stage): 45±10%
- number of TUNEL stained cells ([1]; NP2 stage): 70±10%
- effect on differentiated neurons (cell death) ([1]; differentiated neurons, 20 hours with 75 μM S18): unaffected
- viable embryoid bodies derived from monolayer crater cells (sfEBMs in suspension; 10 μM S18, four days): No viable embryoid bodies were observed
- regions of high Oct-4 expression (residual pluripotent cells) (sfEBMs in suspension; S18 selected sfEBM (10 μM) seeded at day 21, anti-Oct-4 staining): no regions of high Oct-4 expression could be detected
- mitotic activity of neural rosette precursor cells (phosphoHistone H3) (sfEBMs in suspension; day 28 after derivation, 8 days after withdrawal of S18): still mitotically active
- presumptive dopaminergic neurons or their precursors (anti-TH staining) (sfEBMs in suspension; exposure to 10 μM S18): not ablated
- apoptosis in sfEBMs (sfEBMs in suspension; [2]): extensive apoptosis in the bodies
- morphology of rosette regions (sfEBMs in suspension; [2]): morphologically normal
- population surviving incubation (DAPI stained sections) (sfEBMs in suspension; sfEBMs from protease passaged cells, 10 μM S18 from day 6 to 9): a very pure population of neural precursor rosette cells had survived
